These molecules were tested against T1, human histamine H3 receptor (Homo sapiens, UniProt Q9Y5N1) (assay: [3H]-N-methylhistamine binding). Conditions: not given.
T1 construct: One microgram of supercoiled H3 receptor cDNA was added to the cells and mixed; expressed in transfected cells; membranes prepared from cell pellets
T1 sequence (Q9Y5N1 whole entry): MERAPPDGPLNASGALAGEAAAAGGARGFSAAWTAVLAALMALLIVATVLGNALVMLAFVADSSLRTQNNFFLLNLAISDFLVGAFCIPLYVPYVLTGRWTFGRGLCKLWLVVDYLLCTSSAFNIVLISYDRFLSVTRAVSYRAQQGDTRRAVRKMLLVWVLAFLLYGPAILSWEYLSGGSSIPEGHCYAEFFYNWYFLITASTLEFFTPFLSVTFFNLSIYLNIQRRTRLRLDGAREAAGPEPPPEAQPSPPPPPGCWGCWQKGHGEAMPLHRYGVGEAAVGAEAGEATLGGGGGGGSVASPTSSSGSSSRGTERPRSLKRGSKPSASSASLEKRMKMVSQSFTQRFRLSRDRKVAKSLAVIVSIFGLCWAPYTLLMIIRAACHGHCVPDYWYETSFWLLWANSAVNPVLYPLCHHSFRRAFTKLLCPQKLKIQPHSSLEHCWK
Procedure: Transfection of Cells with Human Histamine Receptor
A 10 cm tissue culture dish with a confluent monolayer of SK-N-MC cells was split two days prior to transfection. Using sterile technique the media were removed and the cells were detached from the dish by the addition of trypsin. One fifth of the cells were then placed onto a new 10 cm dish. Cells were grown in a 37° C. incubator with 5% CO2 in Minimal Essential Media Eagle with 10% Fetal Bovine Serum. After two days cells were approximately 80% confluent. These were removed from the dish with trypsin and pelleted in a clinical centrifuge. The pellet was then re-suspended in 400 μL complete media and transferred to an electroporation cuvette with a 0.4 cm gap between the electrodes. One microgram of supercoiled H3 receptor cDNA was added to the cells and mixed. The voltage for the electroporation was set at 0.25 kV, the capacitance was set at 960 μF. After electroporation the cells were diluted into 10 mL complete media and plated onto four 10 cm dishes. Because of the variability in the efficiency of electroporation, four different concentrations of cells were plated. The ratios used were; 1:20, 1:10, 1:5, with the remainder of the cells being added to the fourth dish. The cells were allowed to recover for 24 hours before adding the selection media (complete media with 600 μg/mL G418). After 10 days dishes were analyzed for surviving colonies of cells. Dishes with well isolated colonies were used. Cells from individual colonies were isolated and tested. SK-N-MC cells were used because they give efficient coupling for inhibition of adenylate cyclase. The clones that gave the most robust inhibition of adenylate cyclase in response to histamine were used for further study.
[^3H]-N-methylhistamine Binding
Cell pellets from histamine H3 receptor-expressing SK-N-MC cells were homogenized in 20 mM Tris HCl/0.5 mM EDTA. Supernatants from a 800 g spin were collected, recentrifuged at 30,000 g for 30 min. Pellets were re-homogenized in 50 mM Tris/5 mM EDTA (pH 7.4). Membranes were incubated with 0.8 nM [^3H]-N-methylhistamine plus/minus test compounds for 45 min at 25° C. and harvested by rapid filtration over GF/C glass fiber filters (pretreated with 0.3% polyethylenimine) followed by four washes with ice cold buffer. Filters were dried, added to 4 mL scintillation cocktail and then counted on a liquid scintillation counter. Non-specific binding was defined with 10 μM histamine.
`C(#Cc1cccc(CN2CCCCC2c2cccnc2)c1)CCN1CCCCC1` (stereo not shown) [Example 42, 1-[3-(4-Piperidin-1-yl-but-1-ynyl)-benzyl]-1,2,3,4,5,6-hexahydro-[2,3′]bipyridinyl] showed a Ki of 11 nM. `C(#Cc1ccc(CN2CCN(Cc3ccccc3)CC2)cc1)CCN1CCCCC1` [Example 36, 1-Benzyl-4-[4-(4-piperidin-1-yl-but-1-ynyl)-benzyl]-piperazine] was tested, and the Ki was 9 nM. `C(#Cc1ccc(CN2CCNCC2)cc1)CCN1CCCCC1` [Example 38, 1-[4-(4-Piperidin-1-yl-but-1-ynyl)-benzyl]-piperazine] showed a Ki of 1.3 nM. For `CN(CCc1c[nH]c2ccccc12)Cc1cccc(C#CCCN2CCCCC2)c1` [Example 52, [2-(1H-Indol-3-yl)-ethyl]-methyl-[3-(4-piperidin-1-yl-but-1-ynyl)-benzyl]-amine], the Ki was 2 nM. For `CN1CCN(Cc2ccc(C#CCCN3CCCCC3)cc2)CC1` [Example 32, 1-Methyl-4-[4-(4-piperidin-1-yl-but-1-ynyl)-benzyl]-piperazine], the Ki was 0.7 nM. For `FC(F)(F)c1cccc(N2CCN(Cc3cccc(C#CCCN4CCCCC4)c3)CC2)c1` [Example 43, 1-[3-(4-Piperidin-1-yl-but-1-ynyl)-benzyl]-4-(3-trifluoromethyl-phenyl)-piperazine], the Ki was 91 nM.

Same assay, conditions: membranes of histamine H3 receptor-expressing SK-N-MC cells; 0.8 nM [3H]-N-methylhistamine; 45 min at 25° C.; read-out: Ki
For `C(#Cc1ccc(CN2CCCCC2)cc1)CCN1CCCCC1` [Example 14, 1-[4-(4-Piperidin-1-ylmethyl-phenyl)-but-3-ynyl]-piperidine], the Ki was 1.6 nM. `C(#Cc1cccc(CN2CCCCC2)c1)CCN1CCCCC1` [Example 15, 1-[3-(4-Piperidin-1-yl-but-1-ynyl)-benzyl]-piperidine] showed a Ki of 0.8 nM. In the case of `C(#Cc1cccc(CN2CCSC2)c1)CCN1CCCCC1` [Example 51, 1-[4-(3-Thiazolidin-3-ylmethyl-phenyl)-but-3-ynyl]-piperidine], the Ki is reported as 1 nM. With `C(#Cc1ccc(CN2CCCC3CCCCC32)cc1)CCN1CCCCC1` (stereo not shown) [Example 29, 1-[4-(4-Piperidin-1-yl-but-1-ynyl)-benzyl]-decahydro-quinoline] the Ki was 0.8 nM. Work on `C(#Cc1ccc(CN2CCCCC2)cc1)CCN1CCSCC1` [Example 20, 4-[4-(4-Piperidin-1-ylmethyl-phenyl)-but-3-ynyl]-thiomorpholine] yielded a Ki of 6 nM. `C(#Cc1ccc(CN2CCN(c3ccccc3)CC2)cc1)CCN1CCCCC1` [Example 35, 1-Phenyl-4-[4-(4-piperidin-1-yl-but-1-ynyl)-benzyl]-piperazine] was tested, and the Ki was 7 nM. In the case of `C(#Cc1cccc(CN2CCOCCOCCOCC2)c1)CCN1CCCCC1` [Example 50, 10-[3-(4-Piperidin-1-yl-but-1-ynyl)-benzyl]-1,4,7-trioxa-10-aza-cyclododecane], the Ki is reported as 2 nM. Work on `C(#Cc1cccc(CNc2ccccc2)c1)CCN1CCCCC1` [Example 54, Phenyl-[3-(4-piperidin-1-yl-but-1-ynyl)-benzyl]-amine] yielded a Ki of 110 nM. `C(#Cc1ccc(CN2CCC(Cc3ccccc3)CC2)cc1)CCN1CCCCC1` [Example 26, 1-{4-[4-(4-Benzyl-piperidin-1-ylmethyl)-phenyl]-but-3-ynyl}-piperidine] was tested, and the Ki was 2.9 nM. Work on `C(#Cc1cccc(CN2CCSCC2)c1)CCN1CCCCC1` [Example 48, 4-[3-(4-Piperidin-1-yl-but-1-ynyl)-benzyl]-thiomorpholine] yielded a Ki of 1 nM. Molecule `C(#Cc1ccc(CN2CCC3(CC2)OCCO3)cc1)CCN1CCCCC1` [Example 31, 8-[4-(4-Piperidin-1-yl-but-1-ynyl)-benzyl]-1,4-dioxa-8-aza-spiro[4.5]decane] has a Ki of 1.8 nM. `C(#Cc1cccc(CN2CCN(c3ncccn3)CC2)c1)CCN1CCCCC1` [Example 44, 2-{4-[3-(4-Piperidin-1-yl-but-1-ynyl)-benzyl]-piperazin-1-yl}-pyrimidine] was tested, and the Ki was 9 nM. `C(#Cc1cccc(CN2CCCCCCCCCCCC2)c1)CCN1CCCCC1` [Example 56, 1-[3-(4-Piperidin-1-yl-but-1-ynyl)-benzyl]-azacyclotridecane] was tested, and the Ki was 13 nM. `CN(CCc1ccccn1)Cc1cccc(C#CCCN2CCCCC2)c1` [Example 46, Methyl-[3-(4-piperidin-1-yl-but-1-ynyl)-benzyl]-(2-pyridin-2-yl-ethyl)-amine] showed a Ki of 4 nM. Work on `CC(C)N1CCN(Cc2ccc(C#CCCN3CCCCC3)cc2)CC1` [Example 39, 1-Isopropyl-4-[4-(4-piperidin-1-yl-but-1-ynyl)-benzyl]-piperazine] yielded a Ki of 1.3 nM. With `CCN(CC)CCC#Cc1ccc(CN2CCCCC2)cc1` [Example 19, Diethyl-[4-(4-piperidin-1-ylmethyl-phenyl)-but-3-ynyl]-amine] the Ki was 2.4 nM. Molecule `C(#Cc1cccc(CN2CCCC2)c1)CCN1CCCCC1` [Example 55, 1-[4-(3-Pyrrolidin-1-ylmethyl-phenyl)-but-3-ynyl]-piperidine] has a Ki of 1 nM. `CCN(CC)C(=O)C1CCCN(Cc2cccc(C#CCCN3CCCCC3)c2)C1` (stereo not shown) [Example 41, 1-[3-(4-Piperidin-1-yl-but-1-ynyl)-benzyl]-piperidine-3-carboxylic acid diethylamide] gave a Ki of 3 nM. With `CCN(CC)Cc1ccc(C#CCCN2CCCCC2)cc1` [Example 25, Diethyl-[4-(4-piperidin-1-yl-but-1-ynyl)-benzyl]-amine] the Ki was 1.1 nM. Work on `CN1CCN(CCC#Cc2ccc(CN3CCCCC3)cc2)CC1` [Example 22, 1-Methyl-4-[4-(4-piperidin-1-ylmethyl-phenyl)-but-3-ynyl]-piperazine] yielded a Ki of 21 nM. `CC(C)(C)OC(=O)N1CCN(Cc2ccc(C#CCCN3CCCCC3)cc2)CC1` [Example 37, 4-[4-(4-Piperidin-1-yl-but-1-ynyl)-benzyl]-piperazine-1-carboxylic acid tert-butyl ester] was tested, and the Ki was 15 nM. `C(#Cc1ccc(CNC2CCc3ccccc32)cc1)CCN1CCCCC1` (stereo not shown) [Example 34, Indan-1-yl-[4-(4-piperidin-1-yl-but-1-ynyl)-benzyl]-amine] was tested, and the Ki was 1.3 nM. `C(#Cc1ccc(CN2CCCCC2)cc1)CCN1CCCC1` [Example 18, 1′-[4-(4-Pyrrolidin-1-yl-but-1-ynyl)-benzyl]-piperidine] showed a Ki of 2 nM. In the case of `NC(=O)C1CCN(Cc2cccc(C#CCCN3CCCCC3)c2)CC1` [Example 45, 1-[3-(4-Piperidin-1-yl-but-1-ynyl)-benzyl]-piperidine-4-carboxylic acid amide], the Ki is reported as 2 nM. With `NC(=O)C1CCN(Cc2ccc(C#CCCN3CCCCC3)cc2)CC1` [Example 30, 1-[4-(4-Piperidin-1-yl-but-1-ynyl)-benzyl]-piperidine-4-carboxylic acid amide] the Ki was 1.6 nM. For `OC1CCN(Cc2ccc(C#CCCN3CCCCC3)cc2)CC1` [Example 27, 1-[4-(4-Piperidin-1-yl-but-1-ynyl)-benzyl]-piperidin-4-ol], the Ki was 1.7 nM. `C(#Cc1ccc(CN2CCCCC2)cc1)CCN1CCOCC1` [Example 21, 4-[4-(4-Piperidin-1-ylmethyl-phenyl)-but-3-ynyl]-morpholine] showed a Ki of 15 nM. `OCCC1CCCCN1Cc1ccc(C#CCCN2CCCCC2)cc1` (stereo not shown) [Example 28, 2-{1-[4-(4-Piperidin-1-yl-but-1-ynyl)-benzyl]-piperidin-2-yl}-ethanol] gave a Ki of 0.4 nM. In the case of `C(#Cc1ccc(CN2CCCC2)cc1)CCN1CCCCC1` [Example 23, 1-[4-(4-Pyrrolidin-1-ylmethyl-phenyl)-but-3-ynyl]-piperidine], the Ki is reported as 1.4 nM. `C=CCN(Cc1cccc(C#CCCN2CCCCC2)c1)C1CCCC1` [Example 49, Allyl-cyclopentyl-[3-(4-piperidin-1-yl-but-1-ynyl)-benzyl]-amine] showed a Ki of 2 nM. `C(#Cc1ccc(CNC2CCCCC2)cc1)CCN1CCCCC1` [Example 33, Cyclohexyl-[4-(4-piperidin-1-yl-but-1-ynyl)-benzyl]-amine] was tested, and the Ki was 0.5 nM. For `COc1ccc(CCN(C)Cc2cccc(C#CCCN3CCCCC3)c2)cc1OC` [Example 47, [2-(3,4-Dimethoxy-phenyl)-ethyl]-methyl-[3-(4-piperidin-1-yl-but-1-ynyl)-benzyl]-amine], the Ki was 3 nM. With `C(#Cc1ccc(CN2CCOCC2)cc1)CCN1CCCCC1` [Example 24, 4-[4-(4-Piperidin-1-yl-but-1-ynyl)-benzyl]-morpholine] the Ki was 5.5 nM.

Same assay, conditions: read-out: Ki
Molecule `O=C1NCN(c2ccccc2)C12CCN(Cc1cccc(C#CCCN3CCCCC3)c1)CC2` [Example 40, 1-Phenyl-8-[3-(4-piperidin-1-yl-but-1-ynyl)-benzyl]-1,3,8-triaza-spiro[4.5]decan-4-one] has a Ki of 2 nM.

Source: patent US7446104B2, “Phenylalkynes” (Ortho-McNeil Pharmaceutical, Inc., priority 2001, dated 2008)
